Earlier results in patent US20200197494A1, “PEPTIDE COMPOSITIONS AND METHODS OF USE” (Dauntless Pharmaceuticals, priority 2017, published 2020).

Settings: subcutaneous administration; background statement

Which “peptide present in the blood stream (bioavailability)” value does the source give for C[C@@H](O)[C@@H]1NC(=O)[C@H](CCCCN)NC(=O)[C@@H](Cc2c[nH]c3ccccc23)NC(=O)[C@H](Cc2ccccc2)NC(=O)[C@@H](NC(=O)[C@H](N)Cc2ccccc2)CSSC[C@@H](C(=O)N[C@H](CO)[C@@H](C)O)NC1=O [octreotide, D-phenylalanyl-L-cysteinyl-L-phenylalanyl-D-tryptophyl-L-lysyl-L-threonyl-N-[2-hydroxy-1-(hydroxymethyl)propyl]-L-Cysteinamide, cyclic (2→7)-disulfide] here?
The value was roughly 100%.
